Test results published in publication PMC8957246, “Synthesis and diverse biological activity profile of triethylammonium isatin-3-hydrazones” (ADMET & DMPK, 2022).
Where two headings read alike, the source gives them in different places.

Legend:
Format in all cases: cell-based
[1] = tested on: Enterococcus faecalis ATCC 29212; assay: Antimicrobial activity, serial dilution (MIC/MBC), Ef; conditions: ATCC29212
Description: The antimicrobial activity of the test compounds was determined by the serial dilution technique in Muller Hinton Broth 2 and in Sabouradu broth for fungi. The cultures used for testing included Gram-positive bacteria: Staphylococcus aureus ATCC 6538P FDA 209P, Bacillus cereus ATCC 10702 NCTC 8035, Enterococcus faecalis ATCC 29212; Gram-negative bacteria: Escherichia coli ATCC 25922, Pseudomonas aeruginosa ATCC 9027, and fungi: Trichophyton mentagrophytes var. gypseum 1773, and Candida albicans ATCC 10231; methicillin-resistant strains of S. aureus (MRSA) was obtained from hospital patients with chronic tonsillitis in the Republican Clinical Hospital (Kazan, Russia). The bacterial load was 3.0 × 10^5 cfu/ml. The fungi load was 2.0 × 10^3 cfu/ml. The results were recorded every 24 h for 5-7 days. Cultures were incubated at 37 °C. The experiment was repeated three times. […] The minimum inhibitory concentration (MIC) was defined as the minimum concentration of a compound that inhibits the growth of the corresponding test microorganism. The growth of bacteria, as well as the absence of the growth due to the bacteriostatic action of compounds, were recorded.
Synthesized compounds were further evaluated for antimicrobial activity against test microorganisms: Staphylococcus aureus ATCC 209p (Sa), Bacillus cereus ATCC 8035 (Bc), Escherichia coli CDC F-50 (Ec), Enterococcus faecalis (Ef), Pseudomonas aeruginosa ATCC 9027, Aspergillus niger BKMF-1119, Trichophyton mentagrophytes var. gypseum 1773, and Candida albicans 855-653 including methicillin-resistant strains of S. aureus (MRSA 1 and MRSA 2). The minimum inhibitory (MIC) and minimum bactericidal (MBC) concentrations of ammonium salts were determined against these pathogens (Table 1). Due to the lack of activity of compounds 3a-g against Gram-negative bacterial strains and some fungi, the corresponding data are not shown.

[2] = tested on: Pseudomonas fluorescens EL-2.1; assay: Bactericidal activity, agar diffusion, Ps. fluorescens; conditions: Pseudomonas fluorescens, EL2.1, 2 mM/L
Source text: (§1) Plant pathogenic bacterial strains Micrococcus luteus B-109, Pectobacterium atrosepticum 1043, Pectobacterium carotovorum subsp. carotovorum MI, Pseudomonas fluorescens EL-2.1, and Xanthomonas campestris B-610 and fungal strain Fusarium oxysporum IBPPM 543 were obtained from the specialized scientific culture collection of IBPPM RAS (WFCC no. 975, WDCM no. 1021) (CM IBPPM). Pathogenic fungus Phytophthora cactorum VKM F-985 provided by the All-Russian Collection of Microorganisms (VKM) and deposited at A.E. Favorsky Irkutsk Institute of Chemistry, SB RAS, was also used as test organism. Bacteria M. luteus, P. carotovorum subsp. carotovorum, P. atrosepticum, and Ps. fluorescens were grown in meat-peptone medium (BP), and X. campestris was grown in the medium with glucose, yeast extract, and calcium carbonate (GYCa). Solid media contained Bacto agar (18 g/L); pH was adjusted to 7.2-7.4. All bacterial cultures were grown at 28°C. The mycelial cultures of F. oxysporum and P. cactorum were grown on a glucose-peptone-yeast (GPY) nutrient medium at 27 °C. For inoculum preparation, both fungal strains were initially grown on the agar GPY in Petri dishes and then transferred into the seed medium by punching out 5 mm of the agar plate culture with a self-designed cutter.
(§2) Antibacterial and antifungal activities of the compounds were explored using the agar diffusion method and the technique of a phytopathogen radial growth inhibition. Method of diffusion in agar (measuring the diameter of growth inhibition zones) was used for determining the bactericidal activity. The 6-mm wells were made in ager medium (GYCa for Xanthomonas campestris or BP for other bacteria). Bacterial suspensions were distributed over the agar surface, and the tested compound's solution (150 μl) was added to each well. The width of growth inhibition zones around the wells was determined after incubation for 36-40 h.
(§3) The solutions of tested compounds were prepared with a concentration of 2 mmol/l (stock solution). For comparison, test compounds were also commonly applied disinfecting agents and antibiotics.

[3] = tested on: Xanthomonas campestris B-610; assay: Bactericidal activity, agar diffusion, X. campestris; conditions: Xanthomonas campestris, B610, 2 mM/L
Source text: as §1, §2, §3

[4] = tested on: Phytophthora cactorum VKM F-985; assay: Fungicidal activity, radial growth inhibition, P. cactorum; conditions: for EC50: Phytophthora cactorum, 168 h, day 7, EC50 = 50C/I, read-out: EC50, μg/mL at day 7
Source text: as §1
For the fungicidal activity analysis, radial growth (colony diameters) of the fungi on a solid medium in the absence and in the presence of the compounds 3a,c-g solutions at various concentrations were compared. The method consisted of the following: sterile, melted and then cooled to about 60°C GPY agar medium (20.0 ml) was mixed with the precisely measured volumes of the solutions under question, and poured into a sterile Petri dish (90 mm i.d.). After solidification of GPY agar, the media were inoculated by the fungus using 10-day-old cultures of F. oxysporum or P. cactorum. The inoculation was done by transferring a 5-mm (i.d.) GPY-agar block covered with mycelium to the center of the Petri dish followed by incubation in a thermostat at 27°C. The fungicidal effect was scored by the size of mycelium colony on a Petri dish compared to the control without fungicidal admixtures to GPY agar. Each treatment was performed in at least four replicates in two independent experiments. The observation period ended when the control Petri dish was filled with mycelium (usually after 12 days). The inhibition of the phytopathogen colony growth by the compounds 3a,c-g or fludioxonil solutions was calculated as a percentage by which the mycelium radial propagation was decreased compared to the unaffected control, the latter was taken as 100 % of growth (or zero percent of inhibition). The EC50 value was calculated as the compound concentration at which the radial growth of the fungus colony was decreased by 50 % relative to the non-fungicidal control, according to the formula EC50 = 50C/I based on the approach developed e.g., in [34, 35].
as §3

[5] = 150 μl per well, 36-40 h, read-out: width of the inhibition zone
[6] = read-out: Inhibition zone width (mm), not less
[7] = C 1.26 μg/mL, age of the fungus 3 days
[8] = C 1.26 μg/mL, age of the fungus 5 days
[9] = C 1.26 μg/mL, age of the fungus 7 days
[10] = C 1.26 μg/mL, age of the fungus 9 days
[11] = C 1.26 μg/mL, age of the fungus 12 days
[12] = C 3.15 μg/mL, age of the fungus 3 days
[13] = C 3.15 μg/mL, age of the fungus 5 days
[14] = C 3.15 μg/mL, age of the fungus 7 days
[15] = C 3.15 μg/mL, age of the fungus 9 days
[16] = C 3.15 μg/mL, age of the fungus 12 days
[17] = C 6.30 μg/mL, age of the fungus 3 days
[18] = C 6.30 μg/mL, age of the fungus 5 days
[19] = C 6.30 μg/mL, age of the fungus 7 days
[20] = C 6.30 μg/mL, age of the fungus 9 days
[21] = C 6.30 μg/mL, age of the fungus 12 days
[22] = C 9.45 μg/mL, age of the fungus 3 days
[23] = C 9.45 μg/mL, age of the fungus 5 days
[24] = C 9.45 μg/mL, age of the fungus 7 days
[25] = C 9.45 μg/mL, age of the fungus 9 days
[26] = C 9.45 μg/mL, age of the fungus 12 days
[27] = C 12.60 μg/mL, age of the fungus 3 days
[28] = C 12.60 μg/mL, age of the fungus 5 days
[29] = C 12.60 μg/mL, age of the fungus 7 days
[30] = C 12.60 μg/mL, age of the fungus 9 days
[31] = C 12.60 μg/mL, age of the fungus 12 days

Row | SMILES | MBC [1] [µM] | MIC [1] [µM] | zone of inhibition at 2000 µM [2, 5] [mm] | zone of inhibition at 2000 µM [2, 6] [mm] | zone of inhibition at 2000 µM [3, 5] [mm] | zone of inhibition at 2000 µM [3, 6] [mm] | EC50 [4] [µg/mL] | Inhibition value, I (%) [4, 7] [%] | Inhibition value, I (%) [4, 8] [%] | Inhibition value, I (%) [4, 9] [%] | Inhibition value, I (%) [4, 10] [%] | Inhibition value, I (%) [4, 11] [%] | Inhibition value, I (%) [4, 12] [%] | Inhibition value, I (%) [4, 13] [%] | Inhibition value, I (%) [4, 14] [%] | Inhibition value, I (%) [4, 15] [%] | Inhibition value, I (%) [4, 16] [%] | Inhibition value, I (%) [4, 17] [%] | Inhibition value, I (%) [4, 18] [%] | Inhibition value, I (%) [4, 19] [%] | further results
1 | CC[N+](CC)(CC)CC(=O)N/N=C1\C(=O)N(Cc2cc(C(C)(C)C)c(O)c(C(C)(C)C)c2)c2ccccc21 [Compound 3a, 2-(2-(1-(3,5-Di-tert-butyl-4-hydroxybenzyl)-2-oxoindolin-3-ylidene)hydrazinyl)-N,N,N-triethyl-2-oxoethanammonium bromide] | > 500 | > 500 | 9 | ≥ 9 | 10 | ≥ 10 | 10 | – | – | – | – | – | – | – | – | – | – | – | – | – | Inhibition value, I (%) ([4]; C 3.01 μg/mL, age of the fungus 3 days): 4%; Inhibition value, I (%) ([4]; C 3.01 μg/mL, age of the fungus 5 days): 9%; Inhibition value, I (%) ([4]; C 3.01 μg/mL, age of the fungus 7 days): 15%; Inhibition value, I (%) ([4]; C 3.01 μg/mL, age of the fungus 9 days): 1%; Inhibition value, I (%) ([4]; C 3.01 μg/mL, age of the fungus 12 days): 0%; Inhibition value, I (%) ([4]; C 6.02 μg/mL, age of the fungus 3 days): 13%; Inhibition value, I (%) ([4]; C 6.02 μg/mL, age of the fungus 5 days): 21%; Inhibition value, I (%) ([4]; C 6.02 μg/mL, age of the fungus 7 days): 22%; Inhibition value, I (%) ([4]; C 6.02 μg/mL, age of the fungus 9 days): 4%; Inhibition value, I (%) ([4]; C 6.02 μg/mL, age of the fungus 12 days): 5%; Inhibition value, I (%) ([4]; C 9.03 μg/mL, age of the fungus 3 days): 17%; Inhibition value, I (%) ([4]; C 9.03 μg/mL, age of the fungus 5 days): 22%; Inhibition value, I (%) ([4]; C 9.03 μg/mL, age of the fungus 7 days): 25%; Inhibition value, I (%) ([4]; C 9.03 μg/mL, age of the fungus 9 days): 4%; Inhibition value, I (%) ([4]; C 9.03 μg/mL, age of the fungus 12 days): 5%; Inhibition value, I (%) ([4]; C 12.04 μg/mL, age of the fungus 3 days): 40%; Inhibition value, I (%) ([4]; C 12.04 μg/mL, age of the fungus 5 days): 47%; Inhibition value, I (%) ([4]; C 12.04 μg/mL, age of the fungus 7 days): 49%; Inhibition value, I (%) ([4]; C 12.04 μg/mL, age of the fungus 9 days): 41%; Inhibition value, I (%) ([4]; C 12.04 μg/mL, age of the fungus 12 days): 26%
2 | CCc1cccc2c1N(Cc1cc(C(C)(C)C)c(O)c(C(C)(C)C)c1)C(=O)/C2=N\NC(=O)C[N+](CC)(CC)CC [Compound 3c, 2-(2-(1-(3,5-Di-tert-butyl-4-hydroxybenzyl)-7-ethyl-2-oxoindolin-3-ylidene)hydrazinyl)-N,N,N-triethyl-2-oxoethanammonium bromide] | > 500 | > 500 | 8 | ≥ 8 | 11 | ≥ 11 | 2.1 | 17 | 28 | 30 | 12 | 3 | 29 | 31 | 38 | 20 | 16 | 33 | 44 | 45 | Inhibition value, I (%) [4, 20]: 28%; Inhibition value, I (%) [4, 21]: 20%; Inhibition value, I (%) [4, 22]: 39%; Inhibition value, I (%) [4, 23]: 45%; Inhibition value, I (%) [4, 24]: 48%; Inhibition value, I (%) [4, 25]: 41%; Inhibition value, I (%) [4, 26]: 36%; Inhibition value, I (%) [4, 27]: 50%; Inhibition value, I (%) [4, 28]: 56%; Inhibition value, I (%) [4, 29]: 61%; Inhibition value, I (%) [4, 30]: 58%; Inhibition value, I (%) [4, 31]: 48%
3 | CC[N+](CC)(CC)CC(=O)N/N=C1\C(=O)N(Cc2cc(C(C)(C)C)c(O)c(C(C)(C)C)c2)c2c1ccc(C)c2C [Compound 3d, 2-(2-(1-(3,5-Di-tert-butyl-4-hydroxybenzyl)-6,7-dimethyl-2-oxoindolin-3-ylidene)hydrazinyl)-N,N,N-triethyl-2-oxoethanammonium bromide] | 49.6 ± 3.9 | 49.6 ± 3.9 | 9 | ≥ 9 | 8 | ≥ 8 | 11.2 | 18 | 17 | 5 | 0 | 0 | 23 | 18 | 14 | 6 | 5 | 29 | 19 | 15 | Inhibition value, I (%) [4, 20]: 8%; Inhibition value, I (%) [4, 21]: 7%; Inhibition value, I (%) [4, 22]: 31%; Inhibition value, I (%) [4, 23]: 20%; Inhibition value, I (%) [4, 24]: 17%; Inhibition value, I (%) [4, 25]: 9%; Inhibition value, I (%) [4, 26]: 8%; Inhibition value, I (%) [4, 27]: 50%; Inhibition value, I (%) [4, 28]: 50%; Inhibition value, I (%) [4, 29]: 51%; Inhibition value, I (%) [4, 30]: 48%; Inhibition value, I (%) [4, 31]: 35%
